Here are results for four compounds from ChEMBL document CHEMBL1687844, “In Vitro antiretroviral properties of S/GSK1349572, a next-generation HIV integrase inhibitor” (Antimicrob Agents Chemother, 2011).

Calls of active or inactive are those of the source. The calls are words filed in the database; no cut-off is given here.

Data set [1] concerns Human immunodeficiency virus 1. Briefly: Antiviral activity against Human immunodeficiency virus 1 Bal infected in human PBMC assessed as incorporation of [methly-3H]dTTP to viral DNA after 7 days by reverse transcriptase activity in presence of 100% human serum relative to control.
For data set [2], the system named is Human immunodeficiency virus 1. Briefly: Antiviral activity against Human immunodeficiency virus 1 Bal infected in human PBMC assessed as incorporation of [methly-3H]dTTP to viral DNA after 7 days by reverse transcriptase activity in presence of 100% human serum. Particulars: 168 h.
In data set [3] the test system is Human immunodeficiency virus 1. In kind it is functional, organism-based. Particulars: Human immunodeficiency virus 1, 3B, MT2.
The test system of data set [4] is Human immunodeficiency virus 1. In kind it is functional, organism-based. To be noted: Human immunodeficiency virus 1, 3B, MT2. This is another data set of the same source.
Data set [5] has as its system Human immunodeficiency virus 1. In kind it is functional, organism-based. To be noted: Human immunodeficiency virus 1, 3B, MT2. This is another data set of the same source.
For data set [6], the system named is Human immunodeficiency virus 1. Kind of data set: Antiviral activity against Human immunodeficiency virus 1 3B infected in human MT2 cells assessed as inhibition of virus induced cytopathic effect measured after 2 to 3 days by PCR. In kind it is functional, organism-based. (In general: Protection from cytopathic effect is a common read-out in antiviral testing.)

Data set [7] relates to Human immunodeficiency virus 1. Briefly: Antiviral activity against Human immunodeficiency virus 1 3B harboring integrase T124A mutant gene infected in human MT2 cells assessed as inhibition of virus induced cytopathic effect selected after 14 passages measured after 2 to 3 days by PCR. In kind it is functional, organism-based.
The subject of data set [8] is Human immunodeficiency virus 1. In kind it is functional, organism-based. Particulars: Human immunodeficiency virus 1, 3B, MT2. This is another data set of the same source.
The test system of data set [9] is Human immunodeficiency virus 1. In kind it is functional, organism-based. Particulars: Human immunodeficiency virus 1, 3B, MT2, 672 h.
The test system of data set [10] is Human immunodeficiency virus 1. Kind of data set: Antiviral activity against Human immunodeficiency virus 1 3B harboring reverse transcriptase M184V mutant infected in human MT2 cells assessed as inhibition of virus induced cytopathic effect selected on day 14 after 4 passages by PCR analysis. In kind it is functional, organism-based. To be noted: MT2, 336 h.
Data set [11] relates to Human immunodeficiency virus 1. Kind of data set: Antiviral activity against Human immunodeficiency virus 1 3B harboring reverse transcriptase M184V, M184I, K82N mutant infected in human MT2 cells assessed as inhibition of virus induced cytopathic effect selected on day 14 after 4 passages by PCR analysis. To be noted: MT2, 336 h. In kind it is functional, organism-based.

Data set [12] relates to Human immunodeficiency virus 1. Briefly: Antiviral activity against Human immunodeficiency virus 1 3B harboring reverse transcriptase M184V, M184I mutant infected in human MT2 cells assessed as inhibition of virus induced cytopathic effect selected on day 14 after 4 passages by PCR analysis. In kind it is functional, organism-based. Particulars: MT2, 336 h.
Data set [13] relates to Human immunodeficiency virus 1. Briefly: Antiviral activity against Human immunodeficiency virus 1 NL432 infected in human MT4 cells assessed as effect on viral DNA production after 18 hrs by quantitative PCR. In kind it is functional, organism-based.
Data set [14] concerns Human immunodeficiency virus 1. Briefly: Antiviral activity against Human immunodeficiency virus 1 3B infected in human MT4 cells assessed as incorporation of [methly-3H]dTTP to viral DNA after 7 days by reverse transcriptase activity in presence of […]. In kind it is functional.
Data set [15] is described as follows: Cytotoxicity against human U937 cells after 2 days by Cell titer Glo luminescent assay. In kind it is cell-based, U-937. In general terms: ATP-based viability assays read luminescence as a measure of living cells.
The subject of data set [16] is Human immunodeficiency virus 1. Briefly: Antiviral activity against pseudo Human immunodeficiency virus 1 Bal infected in human CIP4 after 2 days by luciferase reporter gene assay in presence of 40 mg/ml HAS relative to control. In kind it is functional. In general terms: In a reporter assay the amount or activity of a reporter protein is the signal.
The subject of data set [17] is Human immunodeficiency virus 1. Briefly: Antiviral activity against Human immunodeficiency virus 1 3B infected in human MT4 cells assessed as incorporation of [methly-3H]dTTP to viral DNA after 7 days by reverse transcriptase activity in presence of 20% human serum albumin relative to control. In kind it is functional.
The nature of data set [18]: Cytotoxicity against human MOLT4 cells after 2 days by Cell titer Glo luminescent assay. In kind it is cell-based, MOLT-4.
Data set [19] relates to Human immunodeficiency virus 1. Briefly: Antiviral activity against NNRTI-resistant Human immunodeficiency virus 1 NL432 harboring non-nucleotide reverse transcriptase […] mutant infected in human HeLa-CD4 cells after 2 to 3 days by reverse transcriptase activity. In kind it is functional, organism-based. To be noted: Human immunodeficiency virus 1, NL432, CD4; pooled result: one value given for 9 cell lines, strains, targets or settings.

A short description of data set [20]: Cytotoxicity against human MT4 cells after 2 days by Cell titer Glo luminescent assay. In kind it is cell-based.
Data set [21] deals with Human immunodeficiency virus 1. Kind of data set: Antiviral activity against Human immunodeficiency virus 1 NL432 infected in human MT4 cells assessed as inhibition of viral DNA integration after 18 hrs by quantitative PCR. In kind it is functional, organism-based.
In data set [22] the test system is Human immunodeficiency virus 1. Kind of data set: Ratio of EC90 for protein-activated Human immunodeficiency virus 1 Bal infected in human PBMC to EC50 Human immunodeficiency virus 1 Bal infected in human PBMC. In kind it is functional.
Data set [23] concerns Human immunodeficiency virus 1. Briefly: Antiviral activity against Human immunodeficiency virus 1 Bal infected in human PBMC assessed as incorporation of [methly-3H]dTTP to viral DNA after 7 days by reverse transcriptase activity. In kind it is functional, organism-based. To be noted: 168 h.
Data set [24] has as its system Human immunodeficiency virus 1. Kind of data set: Antiviral activity against Human immunodeficiency virus 1 NL432 infected in human MT4 cells assessed as increase in 2-LTR circular DNA after 18 hrs by quantitative PCR. In kind it is functional, organism-based.
Data set [25] in a line: Cytotoxicity against unstimulated human PBMC after 2 days by Cell titer Glo luminescent assay. In kind it is cell-based.
A short description of data set [26]: Cytotoxicity against PHA-stimulated human PBMC after 2 days by Cell titer Glo luminescent assay. In kind it is cell-based.
Data set [27] relates to Human immunodeficiency virus 2. Kind of data set: Antiviral activity against Human immunodeficiency virus 2 clinical isolate obtained from HIV infected patients. In kind it is functional, organism-based.
Data set [28] in a line: Cytotoxicity against human IM9 cells after 2 days by Cell titer Glo luminescent assay. In kind it is cell-based, IM-9.
Data set [29] has as its system Human immunodeficiency virus 1. Kind of data set: Antiviral activity against PI-resistant Human immunodeficiency virus 1 NL432 harboring […] L24I/M46I/L63P/A71V/G73S/V82Tmutant infected in human MT4 cells after 2 to 3 days by reverse transcriptase activity. In kind it is functional, organism-based. Particulars: Human immunodeficiency virus 1, NL432, MT4.

The subject of data set [30] is Human immunodeficiency virus 1. Briefly: Antiviral activity against pseudo Human immunodeficiency virus 1 Bal infected in human CIP4 after 2 days by luciferase reporter gene assay. In kind it is functional, organism-based. To be noted: CIP4, 48 h.
The test system of data set [31] is Human immunodeficiency virus 1. Briefly: Antiviral activity against pseudo Human immunodeficiency virus 1 Bal infected in human CIP4 after 2 days by luciferase reporter gene assay in presence of 2 mg/ml AAG relative to control. In kind it is functional.
The subject of data set [32] is Human immunodeficiency virus 1. Briefly: Antiviral activity against Human immunodeficiency virus 1 3B infected in human MT4 cells assessed as viral viability after 4 to 5 days by Cell titer Glo luminescent assay. In kind it is functional, organism-based.

As a reminder, the EC50 is the concentration at which the effect is half-maximal. By EC90 is commonly meant the concentration needed for an effect of 90%. Take `COc1cc2c(cc1Cc1cccc(Cl)c1F)c(=O)c(C(=O)O)cn2[C@H](CO)C(C)C`: the “fold change (FC)” value in [1] is listed as 22. Also, in [2], the EC50 amounted to 20 nM and the EC90 came out at 78 nM.

As to `Cc1nnc(C(=O)NC(C)(C)c2nc(C(=O)NCc3ccc(F)cc3)c(O)c(=O)n2C)o1` [RALTEGRAVIR POTASSIUM], the EC50 in data set [3] was determined as 32 nM; in data set [4], 6.4 nM; in [5], 1.3 nM; in data set [6] it was 0.26 nM; in data set [2], 5.6 nM; in [7] it was 0.26 nM. The EC50 was 6.4 nM in [8] and 0.26 nM in data set [9]. For the same compound, the EC90 in [2] is 23 nM.

On to `Nc1ccn([C@@H]2CS[C@H](CO)O2)c(=O)n1` [LAMIVUDINE], for which the half-maximal effective concentration (EC50) in [6], in data set [10], in data set [11] and in data set [12] was 800 nM throughout.

By CC50 is commonly meant the concentration giving 50% cytotoxicity. On to `C[C@@H]1CCO[C@H]2Cn3cc(C(=O)NCc4ccc(F)cc4F)c(=O)c([O-])c3C(=O)N12.[Na+]` [DOLUTEGRAVIR SODIUM], for which the outcome in data set [13] was inactive. In addition, the “fold change (FC)” value in data set [14] amounted to 75; in [1] it was 75; in [16], 11; in data set [17], 32; in data set [22] it was 3; in data set [31], 2.1. Moreover, the EC50 amounted to 0.26 nM in [6]; 38 nM in [2]; 1.3 nM in data set [19]; 0.51 nM in data set [23]; 0.8 nM in data set [27]; 0.36 nM in [29]. The EC50 amounted to 2.2 nM in data set [30] and 0.71 nM in [32]. In addition, the EC90 in [2] worked out at 152 nM. Moreover, the CC50 at 48 h in [15] was determined as 7000 nM; in data set [18], 15000 nM; in [20], 14000 nM; in [25] it was 189000 nM; in data set [26], 52000 nM; in data set [28] it was 4800 nM. Moreover, the inhibition entry in [21] is “Active”. Moreover, in data set [24], the result was Active.
